In PubChem BioAssay (NCI):
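Dose response: 5 concentrations. Exposure: 48 h. Format: 96-well plates. Endpoint: linear interpolation; highest concentration if not reached. Abbreviation: GI50, concentration required for 50% inhibition of growth. TGI is the concentration that stops growth completely.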

system: RPMI-8226 leukemia; experiment: inhibition of tumour cell growth, NCI panel, 48 h

Row | Compound | GI50 | TGI
1 | Cc1ccccc1NC(=O)N/C(N)=N/c1nc(-c2cccc([N+](=O)[O-])c2)cs1 | 3.09 µM | > 100 µM

system: NCI/ADR-RES ovarian; experiment: inhibition of tumour cell growth, NCI panel, 48 h

Row | Compound | TGI | GI50
2 | CCOC(=O)C(Cl)(NC(=O)NC(Cl)(C(=O)OCC)C(F)(F)F)C(F)(F)F (stereo not drawn) | > 100 µM | –
3 | CC(=O)N1C(=O)CC2(N=C(C)CC2=O)c2ccccc21 (stereo not drawn) | > 10 µM | –
4 | CSc1ccc(C2=NN(C(=O)c3ccc(F)cc3)C(c3ccc(F)cc3)C2)cc1 (stereo not drawn) | 33 µM | 16 µM
5 | CC[C@H](NC(=O)[C@H](C)NC)C(=O)N1C[C@@H](O)C[C@H]1Cc1c(-c2[nH]c3cc(F)ccc3c2C[C@@H]2C[C@H](O)CN2C(=O)[C@H](CC)NC(=O)[C@H](C)NC)[nH]c2cc(F)ccc12 | > 100 µM | > 100 µM
6 | Cc1ccccc1NC(=O)N/C(N)=N/c1nc(-c2cccc([N+](=O)[O-])c2)cs1 | 7.22 µM | 1.82 µM

system: HT29 colon; experiment: inhibition of tumour cell growth, NCI panel, 48 h

Row | Compound | TGI | GI50
7 | CCOC(=O)C(Cl)(NC(=O)NC(Cl)(C(=O)OCC)C(F)(F)F)C(F)(F)F (stereo not drawn) | > 100 µM | –
8 | CC(=O)N1C(=O)CC2(N=C(C)CC2=O)c2ccccc21 (stereo not drawn) | > 10 µM | –
9 | CSc1ccc(C2=NN(C(=O)c3ccc(F)cc3)C(c3ccc(F)cc3)C2)cc1 (stereo not drawn) | 15.8 µM | 4.37 µM
10 | CC[C@H](NC(=O)[C@H](C)NC)C(=O)N1C[C@@H](O)C[C@H]1Cc1c(-c2[nH]c3cc(F)ccc3c2C[C@@H]2C[C@H](O)CN2C(=O)[C@H](CC)NC(=O)[C@H](C)NC)[nH]c2cc(F)ccc12 | > 100 µM | 62 µM
11 | Cc1ccccc1NC(=O)N/C(N)=N/c1nc(-c2cccc([N+](=O)[O-])c2)cs1 | 64 µM | 2.78 µM

system: KM12 colon; experiment: inhibition of tumour cell growth, NCI panel, 48 h

Row | Compound | TGI | GI50
12 | CC(=O)N1C(=O)CC2(N=C(C)CC2=O)c2ccccc21 (stereo not drawn) | > 10 µM | –
13 | CSc1ccc(C2=NN(C(=O)c3ccc(F)cc3)C(c3ccc(F)cc3)C2)cc1 (stereo not drawn) | 5.83 µM | 2.2 µM
14 | CC[C@H](NC(=O)[C@H](C)NC)C(=O)N1C[C@@H](O)C[C@H]1Cc1c(-c2[nH]c3cc(F)ccc3c2C[C@@H]2C[C@H](O)CN2C(=O)[C@H](CC)NC(=O)[C@H](C)NC)[nH]c2cc(F)ccc12 | > 100 µM | > 100 µM
15 | Cc1ccccc1NC(=O)N/C(N)=N/c1nc(-c2cccc([N+](=O)[O-])c2)cs1 | > 100 µM | 2.49 µM

system: MOLT-4 leukemia; experiment: inhibition of tumour cell growth, NCI panel, 48 h

Row | Compound | TGI | GI50
16 | CCOC(=O)C(Cl)(NC(=O)NC(Cl)(C(=O)OCC)C(F)(F)F)C(F)(F)F (stereo not drawn) | > 100 µM | –
17 | CSc1ccc(C2=NN(C(=O)c3ccc(F)cc3)C(c3ccc(F)cc3)C2)cc1 (stereo not drawn) | 38.2 µM | 12.3 µM
18 | CC[C@H](NC(=O)[C@H](C)NC)C(=O)N1C[C@@H](O)C[C@H]1Cc1c(-c2[nH]c3cc(F)ccc3c2C[C@@H]2C[C@H](O)CN2C(=O)[C@H](CC)NC(=O)[C@H](C)NC)[nH]c2cc(F)ccc12 | > 100 µM | 74.4 µM
19 | Cc1ccccc1NC(=O)N/C(N)=N/c1nc(-c2cccc([N+](=O)[O-])c2)cs1 | > 100 µM | 3.39 µM

system: HS 578T breast; experiment: inhibition of tumour cell growth, NCI panel, 48 h

Row | Compound | TGI | GI50
20 | CCOC(=O)C(Cl)(NC(=O)NC(Cl)(C(=O)OCC)C(F)(F)F)C(F)(F)F (stereo not drawn) | > 100 µM | –
21 | CSc1ccc(C2=NN(C(=O)c3ccc(F)cc3)C(c3ccc(F)cc3)C2)cc1 (stereo not drawn) | 64.2 µM | 34.2 µM
22 | CC[C@H](NC(=O)[C@H](C)NC)C(=O)N1C[C@@H](O)C[C@H]1Cc1c(-c2[nH]c3cc(F)ccc3c2C[C@@H]2C[C@H](O)CN2C(=O)[C@H](CC)NC(=O)[C@H](C)NC)[nH]c2cc(F)ccc12 | > 100 µM | > 23.7 µM
23 | Cc1ccccc1NC(=O)N/C(N)=N/c1nc(-c2cccc([N+](=O)[O-])c2)cs1 | 7.31 µM | 2.17 µM

system: TK-10 renal; experiment: inhibition of tumour cell growth, NCI panel, 48 h

Row | Compound | TGI | GI50
24 | CC(=O)N1C(=O)CC2(N=C(C)CC2=O)c2ccccc21 (stereo not drawn) | > 10 µM | –
25 | CSc1ccc(C2=NN(C(=O)c3ccc(F)cc3)C(c3ccc(F)cc3)C2)cc1 (stereo not drawn) | 22.8 µM | 10.4 µM
26 | CC[C@H](NC(=O)[C@H](C)NC)C(=O)N1C[C@@H](O)C[C@H]1Cc1c(-c2[nH]c3cc(F)ccc3c2C[C@@H]2C[C@H](O)CN2C(=O)[C@H](CC)NC(=O)[C@H](C)NC)[nH]c2cc(F)ccc12 | > 100 µM | > 100 µM
27 | Cc1ccccc1NC(=O)N/C(N)=N/c1nc(-c2cccc([N+](=O)[O-])c2)cs1 | 14.6 µM | 5.33 µM

system: ACHN renal; experiment: inhibition of tumour cell growth, NCI panel, 48 h

Row | Compound | TGI | GI50
28 | CCOC(=O)C(Cl)(NC(=O)NC(Cl)(C(=O)OCC)C(F)(F)F)C(F)(F)F (stereo not drawn) | > 100 µM | –
29 | CC(=O)N1C(=O)CC2(N=C(C)CC2=O)c2ccccc21 (stereo not drawn) | > 10 µM | –
30 | CSc1ccc(C2=NN(C(=O)c3ccc(F)cc3)C(c3ccc(F)cc3)C2)cc1 (stereo not drawn) | 25.4 µM | 12.7 µM
31 | CC[C@H](NC(=O)[C@H](C)NC)C(=O)N1C[C@@H](O)C[C@H]1Cc1c(-c2[nH]c3cc(F)ccc3c2C[C@@H]2C[C@H](O)CN2C(=O)[C@H](CC)NC(=O)[C@H](C)NC)[nH]c2cc(F)ccc12 | > 100 µM | > 100 µM
32 | Cc1ccccc1NC(=O)N/C(N)=N/c1nc(-c2cccc([N+](=O)[O-])c2)cs1 | 8.46 µM | 2.52 µM

system: HCT-116 colon; experiment: inhibition of tumour cell growth, NCI panel, 48 h

Row | Compound | TGI | GI50
33 | CCOC(=O)C(Cl)(NC(=O)NC(Cl)(C(=O)OCC)C(F)(F)F)C(F)(F)F (stereo not drawn) | > 100 µM | –
34 | CC(=O)N1C(=O)CC2(N=C(C)CC2=O)c2ccccc21 (stereo not drawn) | > 10 µM | –
35 | CSc1ccc(C2=NN(C(=O)c3ccc(F)cc3)C(c3ccc(F)cc3)C2)cc1 (stereo not drawn) | 12.7 µM | 3.61 µM
36 | CC[C@H](NC(=O)[C@H](C)NC)C(=O)N1C[C@@H](O)C[C@H]1Cc1c(-c2[nH]c3cc(F)ccc3c2C[C@@H]2C[C@H](O)CN2C(=O)[C@H](CC)NC(=O)[C@H](C)NC)[nH]c2cc(F)ccc12 | > 100 µM | > 100 µM
37 | Cc1ccccc1NC(=O)N/C(N)=N/c1nc(-c2cccc([N+](=O)[O-])c2)cs1 | 3.18 µM | 1.58 µM

system: IGROV1 ovarian; experiment: inhibition of tumour cell growth, NCI panel, 48 h

Row | Compound | TGI | GI50
38 | CC(=O)N1C(=O)CC2(N=C(C)CC2=O)c2ccccc21 (stereo not drawn) | > 10 µM | –
39 | CSc1ccc(C2=NN(C(=O)c3ccc(F)cc3)C(c3ccc(F)cc3)C2)cc1 (stereo not drawn) | 18.8 µM | 4.91 µM
40 | Cc1ccccc1NC(=O)N/C(N)=N/c1nc(-c2cccc([N+](=O)[O-])c2)cs1 | 11.5 µM | 1.71 µM

system: A498 renal; experiment: inhibition of tumour cell growth, NCI panel, 48 h

Row | Compound | TGI | GI50
41 | CCOC(=O)C(Cl)(NC(=O)NC(Cl)(C(=O)OCC)C(F)(F)F)C(F)(F)F (stereo not drawn) | > 100 µM | –
42 | CC(=O)N1C(=O)CC2(N=C(C)CC2=O)c2ccccc21 (stereo not drawn) | > 10 µM | –
43 | CSc1ccc(C2=NN(C(=O)c3ccc(F)cc3)C(c3ccc(F)cc3)C2)cc1 (stereo not drawn) | 34.9 µM | 19.6 µM
44 | CC[C@H](NC(=O)[C@H](C)NC)C(=O)N1C[C@@H](O)C[C@H]1Cc1c(-c2[nH]c3cc(F)ccc3c2C[C@@H]2C[C@H](O)CN2C(=O)[C@H](CC)NC(=O)[C@H](C)NC)[nH]c2cc(F)ccc12 | > 100 µM | > 100 µM
45 | Cc1ccccc1NC(=O)N/C(N)=N/c1nc(-c2cccc([N+](=O)[O-])c2)cs1 | 7.69 µM | 2.39 µM

system: SF-295 CNS; experiment: inhibition of tumour cell growth, NCI panel, 48 h

Row | Compound | TGI | GI50
46 | CC(=O)N1C(=O)CC2(N=C(C)CC2=O)c2ccccc21 (stereo not drawn) | > 10 µM | –
47 | CSc1ccc(C2=NN(C(=O)c3ccc(F)cc3)C(c3ccc(F)cc3)C2)cc1 (stereo not drawn) | 33.7 µM | 17.9 µM
48 | CC[C@H](NC(=O)[C@H](C)NC)C(=O)N1C[C@@H](O)C[C@H]1Cc1c(-c2[nH]c3cc(F)ccc3c2C[C@@H]2C[C@H](O)CN2C(=O)[C@H](CC)NC(=O)[C@H](C)NC)[nH]c2cc(F)ccc12 | > 100 µM | > 100 µM
49 | Cc1ccccc1NC(=O)N/C(N)=N/c1nc(-c2cccc([N+](=O)[O-])c2)cs1 | 3.62 µM | 1.53 µM

system: SF-539 CNS; experiment: inhibition of tumour cell growth, NCI panel, 48 h

Row | Compound | TGI | GI50
50 | CCOC(=O)C(Cl)(NC(=O)NC(Cl)(C(=O)OCC)C(F)(F)F)C(F)(F)F (stereo not drawn) | > 100 µM | –
51 | CC(=O)N1C(=O)CC2(N=C(C)CC2=O)c2ccccc21 (stereo not drawn) | > 10 µM | –
52 | CSc1ccc(C2=NN(C(=O)c3ccc(F)cc3)C(c3ccc(F)cc3)C2)cc1 (stereo not drawn) | 38.1 µM | 19.4 µM
53 | CC[C@H](NC(=O)[C@H](C)NC)C(=O)N1C[C@@H](O)C[C@H]1Cc1c(-c2[nH]c3cc(F)ccc3c2C[C@@H]2C[C@H](O)CN2C(=O)[C@H](CC)NC(=O)[C@H](C)NC)[nH]c2cc(F)ccc12 | 0.146 µM | < 0.01 µM
54 | Cc1ccccc1NC(=O)N/C(N)=N/c1nc(-c2cccc([N+](=O)[O-])c2)cs1 | 3.21 µM | 1.65 µM

system: SK-OV-3 ovarian; experiment: inhibition of tumour cell growth, NCI panel, 48 h

Row | Compound | TGI | GI50
55 | CCOC(=O)C(Cl)(NC(=O)NC(Cl)(C(=O)OCC)C(F)(F)F)C(F)(F)F (stereo not drawn) | > 100 µM | –
56 | CSc1ccc(C2=NN(C(=O)c3ccc(F)cc3)C(c3ccc(F)cc3)C2)cc1 (stereo not drawn) | 31.1 µM | 16.9 µM
57 | CC[C@H](NC(=O)[C@H](C)NC)C(=O)N1C[C@@H](O)C[C@H]1Cc1c(-c2[nH]c3cc(F)ccc3c2C[C@@H]2C[C@H](O)CN2C(=O)[C@H](CC)NC(=O)[C@H](C)NC)[nH]c2cc(F)ccc12 | 0.0189 µM | < 0.0104 µM
58 | Cc1ccccc1NC(=O)N/C(N)=N/c1nc(-c2cccc([N+](=O)[O-])c2)cs1 | 17.8 µM | 2.55 µM

system: SK-MEL-28 melanoma; experiment: inhibition of tumour cell growth, NCI panel, 48 h

Row | Compound | TGI | GI50
59 | CCOC(=O)C(Cl)(NC(=O)NC(Cl)(C(=O)OCC)C(F)(F)F)C(F)(F)F (stereo not drawn) | > 100 µM | –
60 | CC(=O)N1C(=O)CC2(N=C(C)CC2=O)c2ccccc21 (stereo not drawn) | > 10 µM | –
61 | CSc1ccc(C2=NN(C(=O)c3ccc(F)cc3)C(c3ccc(F)cc3)C2)cc1 (stereo not drawn) | 32.6 µM | 18.3 µM
62 | CC[C@H](NC(=O)[C@H](C)NC)C(=O)N1C[C@@H](O)C[C@H]1Cc1c(-c2[nH]c3cc(F)ccc3c2C[C@@H]2C[C@H](O)CN2C(=O)[C@H](CC)NC(=O)[C@H](C)NC)[nH]c2cc(F)ccc12 | > 100 µM | > 100 µM
